Assay results from the NIST ThermoML archive (doi:10.1021/acs.jced.8b00554).
Numbers after ± are expanded uncertainties.

Assay: xn = mol fraction of the nth substance listed
Settings: Liquid, Vibrating tube method

CCCCCCCCCC [decane] + CCCO
mass density [kg/m3]
Settings	343.15 K	353.15 K
100 kPa, x2 = 0.1391	687.56 ± 4.4	676.32 ± 4.3
100 kPa, x2 = 0.1907	688.32 ± 4.4	676.49 ± 4.3
100 kPa, x2 = 0.3001	690.77 ± 4.4	678.11 ± 4.3
100 kPa, x2 = 0.4326	694.55 ± 4.5	680.77 ± 4.4
100 kPa, x2 = 0.6863	710.6 ± 4.5	696.41 ± 4.5
100 kPa, x2 = 0.8711	732.51 ± 4.7	719.28 ± 4.6
1000 kPa, x2 = 0.1391	–	678.16 ± 4.3
1000 kPa, x2 = 0.1907	–	678.39 ± 4.3
1000 kPa, x2 = 0.8711	–	721.12 ± 4.6
1010 kPa, x2 = 0.1391	689.22 ± 4.4	–
1010 kPa, x2 = 0.1907	690.02 ± 4.4	–
1010 kPa, x2 = 0.3001	692.37 ± 4.4	679.67 ± 4.3
1010 kPa, x2 = 0.4326	696.46 ± 4.5	–
1010 kPa, x2 = 0.6863	712.46 ± 4.6	698.52 ± 4.5
1010 kPa, x2 = 0.8711	734.14 ± 4.7	–
1020 kPa, x2 = 0.4326	–	682.95 ± 4.4
2000 kPa, x2 = 0.6863	713.55 ± 4.6	–
2010 kPa, x2 = 0.1391	–	679.31 ± 4.3
2010 kPa, x2 = 0.1907	691.1 ± 4.4	–
2010 kPa, x2 = 0.3001	693.48 ± 4.4	680.84 ± 4.4
2010 kPa, x2 = 0.6863	–	699.68 ± 4.5
2010 kPa, x2 = 0.8711	–	722.21 ± 4.6
2020 kPa, x2 = 0.1391	690.3 ± 4.4	–
2020 kPa, x2 = 0.1907	–	679.54 ± 4.3
2020 kPa, x2 = 0.4326	697.54 ± 4.5	684.1 ± 4.4
2020 kPa, x2 = 0.8711	735.16 ± 4.7	–
3000 kPa, x2 = 0.1907	–	680.66 ± 4.4
3000 kPa, x2 = 0.3001	–	681.96 ± 4.4
3010 kPa, x2 = 0.1391	691.36 ± 4.4	–
3010 kPa, x2 = 0.1907	692.15 ± 4.4	–
3010 kPa, x2 = 0.3001	694.52 ± 4.5	–
3010 kPa, x2 = 0.6863	–	700.85 ± 4.5
3010 kPa, x2 = 0.8711	736.2 ± 4.7	–
3020 kPa, x2 = 0.1391	–	680.43 ± 4.4
3020 kPa, x2 = 0.4326	698.61 ± 4.5	685.26 ± 4.4
3020 kPa, x2 = 0.6863	714.64 ± 4.6	–
3020 kPa, x2 = 0.8711	–	723.32 ± 4.6
4000 kPa, x2 = 0.1391	692.41 ± 4.4	–
4000 kPa, x2 = 0.4326	–	686.44 ± 4.4
4000 kPa, x2 = 0.6863	715.75 ± 4.6	–
4000 kPa, x2 = 0.8711	737.27 ± 4.7	–
4010 kPa, x2 = 0.1391	–	681.55 ± 4.4
4010 kPa, x2 = 0.1907	–	681.83 ± 4.4
4010 kPa, x2 = 0.3001	–	683.13 ± 4.4
4010 kPa, x2 = 0.6863	–	702.05 ± 4.5
4020 kPa, x2 = 0.1907	693.23 ± 4.4	–
4020 kPa, x2 = 0.3001	695.6 ± 4.5	–
4020 kPa, x2 = 0.4326	699.72 ± 4.5	–
4020 kPa, x2 = 0.8711	–	724.45 ± 4.6
5000 kPa, x2 = 0.4326	700.81 ± 4.5	–
5000 kPa, x2 = 0.8711	–	725.63 ± 4.7
5010 kPa, x2 = 0.1391	–	682.67 ± 4.4
5010 kPa, x2 = 0.1907	–	682.92 ± 4.4
5010 kPa, x2 = 0.3001	696.69 ± 4.5	684.29 ± 4.4
5010 kPa, x2 = 0.4326	–	687.63 ± 4.4
5010 kPa, x2 = 0.6863	716.84 ± 4.6	–
5020 kPa, x2 = 0.1391	693.45 ± 4.4	–
5020 kPa, x2 = 0.1907	694.27 ± 4.5	–
5020 kPa, x2 = 0.6863	–	703.25 ± 4.5
5020 kPa, x2 = 0.8711	738.33 ± 4.7	–
6000 kPa, x2 = 0.6863	–	704.42 ± 4.5
6010 kPa, x2 = 0.1391	–	683.79 ± 4.4
6010 kPa, x2 = 0.1907	695.3 ± 4.5	684.03 ± 4.4
6010 kPa, x2 = 0.4326	701.9 ± 4.5	688.8 ± 4.4
6010 kPa, x2 = 0.6863	717.93 ± 4.6	–
6010 kPa, x2 = 0.8711	739.41 ± 4.7	–
6020 kPa, x2 = 0.1391	694.49 ± 4.5	–
6020 kPa, x2 = 0.3001	697.74 ± 4.5	685.42 ± 4.4
6020 kPa, x2 = 0.8711	–	726.78 ± 4.7
7000 kPa, x2 = 0.4326	702.99 ± 4.5	–
7000 kPa, x2 = 0.8711	740.46 ± 4.7	–
7010 kPa, x2 = 0.1391	695.53 ± 4.5	–
7010 kPa, x2 = 0.1907	696.35 ± 4.5	–
7010 kPa, x2 = 0.3001	698.82 ± 4.5	686.6 ± 4.4
7010 kPa, x2 = 0.4326	–	690 ± 4.4
7010 kPa, x2 = 0.6863	719.02 ± 4.6	–
7020 kPa, x2 = 0.1391	–	684.92 ± 4.4
7020 kPa, x2 = 0.1907	–	685.14 ± 4.4
7020 kPa, x2 = 0.6863	–	705.63 ± 4.5
7020 kPa, x2 = 0.8711	–	727.93 ± 4.7
8000 kPa, x2 = 0.1907	697.42 ± 4.5	–
8000 kPa, x2 = 0.3001	–	687.74 ± 4.4
8000 kPa, x2 = 0.8711	741.52 ± 4.8	–
8010 kPa, x2 = 0.1391	696.59 ± 4.5	686.06 ± 4.4
8010 kPa, x2 = 0.1907	–	686.32 ± 4.4
8010 kPa, x2 = 0.4326	–	691.17 ± 4.4
8010 kPa, x2 = 0.6863	720.12 ± 4.6	706.82 ± 4.5
8010 kPa, x2 = 0.8711	–	729.07 ± 4.7
8020 kPa, x2 = 0.3001	699.88 ± 4.5	–
8020 kPa, x2 = 0.4326	704.06 ± 4.5	–
9000 kPa, x2 = 0.1907	698.46 ± 4.5	–
9000 kPa, x2 = 0.6863	–	708.03 ± 4.5
9010 kPa, x2 = 0.1391	697.61 ± 4.5	–
9010 kPa, x2 = 0.3001	700.95 ± 4.5	–
9010 kPa, x2 = 0.4326	–	692.36 ± 4.4
9010 kPa, x2 = 0.8711	742.57 ± 4.8	730.22 ± 4.7
9020 kPa, x2 = 0.1391	–	687.14 ± 4.4
9020 kPa, x2 = 0.1907	–	687.44 ± 4.4
9020 kPa, x2 = 0.3001	–	688.92 ± 4.4
9020 kPa, x2 = 0.4326	705.14 ± 4.5	–
9020 kPa, x2 = 0.6863	721.21 ± 4.6	–
10000 kPa, x2 = 0.4326	706.23 ± 4.5	693.57 ± 4.5
10000 kPa, x2 = 0.6863	–	709.2 ± 4.5
10010 kPa, x2 = 0.1391	698.62 ± 4.5	688.25 ± 4.4
10010 kPa, x2 = 0.3001	702.02 ± 4.5	–
10010 kPa, x2 = 0.6863	722.27 ± 4.6	–
10010 kPa, x2 = 0.8711	743.61 ± 4.8	–
10020 kPa, x2 = 0.1907	699.47 ± 4.5	–
11010 kPa, x2 = 0.1391	699.66 ± 4.5	–
11010 kPa, x2 = 0.1907	700.5 ± 4.5	–
11010 kPa, x2 = 0.4326	707.27 ± 4.5	–
11010 kPa, x2 = 0.8711	744.65 ± 4.8	–
11020 kPa, x2 = 0.3001	703.07 ± 4.5	–
11020 kPa, x2 = 0.6863	723.34 ± 4.6	–
12000 kPa, x2 = 0.4326	708.34 ± 4.5	–
12000 kPa, x2 = 0.8711	745.65 ± 4.8	–
12010 kPa, x2 = 0.1907	701.55 ± 4.5	–
12010 kPa, x2 = 0.3001	704.1 ± 4.5	–
12020 kPa, x2 = 0.1391	700.67 ± 4.5	–
12020 kPa, x2 = 0.6863	724.37 ± 4.6	–
13000 kPa, x2 = 0.1391	701.67 ± 4.5	–
13000 kPa, x2 = 0.6863	725.42 ± 4.7	–
13000 kPa, x2 = 0.8711	746.64 ± 4.8	–
13010 kPa, x2 = 0.3001	705.15 ± 4.5	–
13010 kPa, x2 = 0.4326	709.37 ± 4.5	–
13020 kPa, x2 = 0.1907	702.55 ± 4.5	–
14000 kPa, x2 = 0.3001	706.16 ± 4.5	–
14000 kPa, x2 = 0.4326	710.39 ± 4.5	–
14000 kPa, x2 = 0.6863	726.44 ± 4.7	–
14000 kPa, x2 = 0.8711	747.65 ± 4.8	–
14010 kPa, x2 = 0.1391	702.65 ± 4.5	–
14020 kPa, x2 = 0.1907	703.54 ± 4.5	–
15000 kPa, x2 = 0.1391	703.58 ± 4.5	–
15000 kPa, x2 = 0.1907	704.5 ± 4.5	–
15000 kPa, x2 = 0.6863	727.44 ± 4.7	–
15010 kPa, x2 = 0.4326	711.38 ± 4.6	–
15010 kPa, x2 = 0.8711	748.62 ± 4.8	–
15020 kPa, x2 = 0.3001	707.12 ± 4.5	–
16000 kPa, x2 = 0.6863	728.43 ± 4.7	–
16000 kPa, x2 = 0.8711	749.58 ± 4.8	–
16010 kPa, x2 = 0.1391	704.52 ± 4.5	–
16010 kPa, x2 = 0.1907	705.46 ± 4.5	–
16010 kPa, x2 = 0.3001	708.12 ± 4.5	–
16020 kPa, x2 = 0.4326	712.37 ± 4.6	–
17000 kPa, x2 = 0.1907	706.43 ± 4.5	–
17000 kPa, x2 = 0.3001	709.07 ± 4.5	–
17000 kPa, x2 = 0.4326	713.3 ± 4.6	–
17010 kPa, x2 = 0.1391	705.45 ± 4.5	–
17010 kPa, x2 = 0.6863	729.39 ± 4.7	–
17010 kPa, x2 = 0.8711	750.52 ± 4.8	–
18000 kPa, x2 = 0.6863	730.34 ± 4.7	–
18010 kPa, x2 = 0.1907	707.33 ± 4.5	–
18010 kPa, x2 = 0.3001	709.98 ± 4.6	–
18010 kPa, x2 = 0.4326	714.25 ± 4.6	–
18010 kPa, x2 = 0.8711	751.45 ± 4.8	–
18020 kPa, x2 = 0.1391	706.37 ± 4.5	–
19010 kPa, x2 = 0.1391	707.22 ± 4.5	–
19010 kPa, x2 = 0.3001	710.9 ± 4.6	–
19010 kPa, x2 = 0.4326	715.15 ± 4.6	–
19010 kPa, x2 = 0.6863	731.24 ± 4.7	–
19010 kPa, x2 = 0.8711	752.35 ± 4.8	–
19020 kPa, x2 = 0.1907	708.2 ± 4.5	–
20000 kPa, x2 = 0.1391	708.05 ± 4.5	–
20000 kPa, x2 = 0.1907	709.04 ± 4.5	–
20000 kPa, x2 = 0.8711	753.23 ± 4.8	–
20010 kPa, x2 = 0.4326	716.08 ± 4.6	–
20010 kPa, x2 = 0.6863	732.18 ± 4.7	–
20020 kPa, x2 = 0.3001	711.75 ± 4.6	–
